According to ChEMBL document CHEMBL1240490, “Novel carbamates as orally active acetylcholinesterase inhibitors found to improve scopolamine-induced cognition impairment: pharmacophore-based virtual screening, synthesis, and pharmacology” (J Med Chem, 2010):
Activity calls are given as the source filed them. The rule behind the calls is not given here.

Legend:
[1] = biological target: T1, Acetylcholinesterase (Homo sapiens, UniProt P22303)
Description: (§1) Inhibition of human AChE by Ellmans test

[2] = biological target: T1, Acetylcholinesterase; remark: listed apart in the source
Description: as §1

[3] = test system: Caenorhabditis elegans; experiment: Inhibition of ACh release in Caenorhabditis elegans N2 N2; format: functional, organism-based

T1 sequence (P22303 whole entry): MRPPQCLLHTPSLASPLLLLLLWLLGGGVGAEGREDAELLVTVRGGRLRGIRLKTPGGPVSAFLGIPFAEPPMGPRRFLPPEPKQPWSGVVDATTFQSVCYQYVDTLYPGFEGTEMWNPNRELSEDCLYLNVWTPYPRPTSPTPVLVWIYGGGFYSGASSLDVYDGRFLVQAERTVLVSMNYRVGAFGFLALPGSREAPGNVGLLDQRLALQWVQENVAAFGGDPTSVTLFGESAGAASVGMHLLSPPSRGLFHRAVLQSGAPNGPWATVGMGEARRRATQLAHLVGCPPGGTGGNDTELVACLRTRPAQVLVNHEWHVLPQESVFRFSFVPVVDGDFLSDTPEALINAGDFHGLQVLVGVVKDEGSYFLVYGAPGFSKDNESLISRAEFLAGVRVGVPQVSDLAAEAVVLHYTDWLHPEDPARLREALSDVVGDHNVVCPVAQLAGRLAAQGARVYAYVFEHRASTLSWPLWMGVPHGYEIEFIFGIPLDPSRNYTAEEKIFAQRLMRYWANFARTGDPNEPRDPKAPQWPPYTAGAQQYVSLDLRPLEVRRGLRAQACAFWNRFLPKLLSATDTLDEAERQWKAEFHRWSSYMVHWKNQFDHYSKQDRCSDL

SMILES | IC50 [1] | logIC50 [2] | inhibition [3]
CN1CC[C@@]2(C)c3cc(OC(=O)Nc4ccccc4)ccc3N(Cc3ccccc3)[C@@H]12 | 245 nM | 2.39 | 
CNC(=O)Oc1ccc2c(c1)[C@]1(C)CCN(C)C1N2Cc1ccccc1 (stereo partly drawn) |  | 2.21 | 
CC(C)c1ccc(NC(=O)Oc2ccc3c(c2)[C@]2(C)CCO[C@@H]2N3C)cc1 |  | 3.59 | 
CCc1ccccc1NC(=O)Oc1ccc2c(c1)[C@]1(C)CCN(C)[C@@H]1N2C |  | 1 | 
Cc1cccc(NC(=O)Oc2ccc3c(c2)[C@]2(C)CCN(C)[C@@H]2N3C)c1C |  | 1.36 | 
CCNC(=O)Oc1ccc2c(c1)[C@]1(C)CCN(C)[C@@H]1N2C |  | 1.97 | 
CNC(=O)Oc1ccc2c(c1)[C@]1(C)CCN(Cc3ccccc3)[C@@H]1N2Cc1ccccc1 | 3560 nM | 3.55 | 
CNC(=O)Oc1ccc2c(c1)c(C)cn2Nc1ccncc1F | 100 nM |  | 
CNC(=O)Oc1ccc2c(c1)CC[C@@H]1CCN(C)[C@H]21 | 17.3 nM |  | 
CNC(=O)Oc1ccc2c(c1)[C@]1(C)CCN(C)[C@@H]1N2C=O | 2500 nM | 3.4 | 
CNC(=O)Oc1ccc2c(c1)[C@]1(C)CCN(C)[C@@H]1N2Cc1ccccc1 | 161 nM | 2.21 | 
CNC(=O)Oc1ccc2c(c1)[C@@]1(C)CCN(C)C1N2 (stereo partly drawn) |  | 1.75 | 
Cc1ccccc1NC(=O)Oc1ccc2c(c1)[C@]1(C)CCNC1N2C (stereo partly drawn) |  | 1.23 | 
Cc1ccccc1NC(=O)Oc1ccc2c(c1)[C@]1(C)CCN(C)C1N2Cc1ccccc1 (stereo partly drawn) |  | 2 | 
CNC(=O)Oc1ccc2c(c1)[C@]1(C)CCN(Cc3ccccc3)C1N2Cc1ccccc1 (stereo partly drawn) |  | 3.04 | 
Cc1ccc(NC(=O)Oc2ccc3c(c2)[C@]2(C)CCN(C)[C@@H]2N3C)c(C)c1 |  | 1.15 | 
CCNC(=O)Oc1ccc2c(c1)C1(C)COC(O2)O1 (stereo not drawn) | 387 nM | 2.59 | 
CC(C)c1ccc(NC(=O)Oc2ccc3c(c2)[C@]2(C)CCN(C)C2N3)cc1 (stereo partly drawn) |  | 3.31 | 
CNC(=O)Oc1ccc2c(c1)SC[C@@H]1CCN(C)[C@H]21 | 8.11 nM |  | 
CN1CC[C@]2(C)c3cc(OC(=O)Nc4ccccc4)ccc3N(Cc3ccccc3)C12 (stereo partly drawn) |  | 4.05 | 

SMILES | IC50 [1] | logIC50 [2] | inhibition [3]
C[C@@]12CCN(Cc3ccccc3)[C@@H]1N(Cc1ccccc1)c1ccc(OC(=O)Nc3ccccc3)cc12 | 41100 nM | 4.61 | 
CCc1cccc(CC)c1NC(=O)Oc1ccc2c(c1)[C@]1(C)CCN(C)[C@@H]1N2C | 690 nM | 2.84 | 
CC(C)c1ccc(NC(=O)Oc2ccc3c(c2)[C@]2(C)CCNC2N3C)cc1 (stereo partly drawn) |  | 2.51 | 
O=C(Nc1ccccc1Cl)Oc1ccc2c(c1)CCCN2Cc1ccccc1 | 3310 nM |  | 
CN1CC[C@@]2(C)c3cc(OC(=O)Nc4ccccc4)ccc3N(C=O)[C@@H]12 | 330 nM | 2.52 | 
CN(C(=O)Oc1ccc2c(c1)[C@]1(C)CCN(C)[C@@H]1N2C)c1ccccc1 | 285 nM | 2.46 | 
CN1CC[C@@]2(C)c3cc(OC(=O)N4CCc5ccccc5C4)ccc3N(C)[C@@H]12 [QUILOSTIGMINE] | 148 nM |  | 
Cc1ccccc1NC(=O)Oc1ccc2c(c1)[C@]1(C)CCN[C@@H]1N2 | 830 nM | 2.92 | 
Cc1cccc(C)c1NC(=O)Oc1ccc2c(c1)[C@]1(C)CCN(C)[C@@H]1N2C |  | 2.89 | 
Cc1cc(C)cc(NC(=O)Oc2ccc3c(c2)[C@]2(C)CCN(C)[C@@H]2N3C)c1 |  | 1.89 | 
Cc1ccc(NC(=O)Oc2ccc3c(c2)[C@]2(C)CCN(C)[C@@H]2N3C)cc1 |  | 2.15 | 
CN(C)Cc1cc2c(cc1OC(=O)Nc1ccccc1)[C@]1(C)CCN(C)[C@@H]1N2C | 780 nM | 2.89 | 
CNC(=O)Oc1ccc2c(c1)[C@]1(C)CCNC1N2 (stereo partly drawn) |  | 3.17 | 
CCNC(=O)Oc1ccc2c(c1)C1(C)COC(C1)O2 (stereo not drawn) |  | 2.56 | 
Cc1ccccc1NC(=O)Oc1ccc2c(c1)[C@]1(C)CCN(C)[C@@H]1N2C [TOLSERINE] | 40 nM | 1 | 
Cc1cc(C)c(NC(=O)Oc2ccc3c(c2)[C@]2(C)CCN(C)[C@@H]2N3C)c(C)c1 |  | 3.11 | 
Cc1ccccc1NC(=O)Oc1ccc2c(c1)[C@]1(C)CCN(CCc3ccccc3)C1N2C (stereo partly drawn) |  | 2.74 | 
CC(C)c1ccc(NC(=O)Oc2ccc3c(c2)[C@]2(C)CCN(C)C2N3Cc2ccccc2)cc1 (stereo partly drawn) |  | 4.11 | 
Cc1ccccc1NC(=O)Oc1ccc2c(c1)[C@]1(C)CCN(C)[C@@H]1N2 | 40 nM | 1.6 | 
CN1CC[C@]2(C)c3cc(OC(=O)Nc4ccccc4)ccc3N(C)C12 (stereo partly drawn) |  | 3.54 | 

SMILES | IC50 [1] | logIC50 [2] | inhibition [3]
C[C@]12CCNC1Nc1ccc(OC(=O)Nc3ccccc3)cc12 (stereo partly drawn) |  | 2.36 | 
Cc1ccc(C)c(NC(=O)Oc2ccc3c(c2)[C@]2(C)CCN(C)[C@@H]2N3C)c1 |  | 1.42 | 
Cc1ccccc1NC(=O)Oc1ccc2c(c1)[C@]1(C)CCO[C@@H]1N2C |  | 1.11 | 
CCOC(=O)C1=CN(C)c2cccc(OC(=O)N(C)C)c2C1 | 7 nM |  | 
CN1CC[C@]2(C)c3cc(OC(=O)Nc4ccccc4)ccc3NC12 (stereo partly drawn) |  | 3.75 | 
C[C@H](c1cccc(OC(=O)N(C)C)c1)N1CCCCC1 | 32 nM |  | 
Cc1ccccc1NC(=O)Oc1ccc2c(c1)[C@]1(C)CCN(Cc3ccccc3)C1N2Cc1ccccc1 (stereo partly drawn) |  | 3.25 | 
CNC(=O)Oc1ccc2c(c1)[C@@]1(C)CCN(C)C1N2Cc1ccccc1 (stereo partly drawn) |  | 3.45 | 
CNC(=O)Oc1ccc2c(c1)[C@]1(C)CCN(C)[C@@H]1N2 | 56.7 nM | 1.75 | 
CC(C)c1ccc(NC(=O)Oc2ccc3c(c2)C2(C)COC(O3)O2)cc1 (stereo not drawn) | 4300 nM | 3.63 | 
CC(C)c1ccccc1NC(=O)Oc1ccc2c(c1)[C@]1(C)CCN(C)[C@@H]1N2C |  | 1.18 | 
CNC(=O)Oc1ccc2c(c1)[C@]1(C)CCO[C@@H]1N2C |  | 1.43 | 
Cc1ccccc1NC(=O)Oc1ccc2c(c1)C1(C)COC(C1)O2 (stereo not drawn) |  | 1.75 | 
Cc1cc2c(cc1OC(=O)Nc1ccccc1)[C@]1(C)CCN(C)[C@@H]1N2C |  | 2.41 | 
Cc1ccc(NC(=O)Oc2ccc3c(c2)[C@]2(C)CCN(C)[C@@H]2N3C)cc1C |  | 1.49 | 
CNC(=O)Oc1ccc2c(c1)OC[C@@H]1CCN(C)[C@H]21 | 30 nM |  | 
CCCCCCNC(=O)Oc1ccc2c(c1)CCCN2Cc1ccccc1 |  |  | Active
CCNC(=O)Oc1ccc2c(c1)[C@]1(C)CCO[C@@H]1N2C |  | 1.91 | 
